As usually defined, the Ki is a measure of affinity in units of concentration, obtained from inhibition or displacement. One may read the inhibition as the percentage by which the read-out fell short of the control. The hepatocyte CLint is the rate of metabolic loss divided by the concentration. Low readings indicate slow turnover, high ones rapid turnover.

Results on 4 compounds are retold here after patent US20260315487A1, “IKK-ALPHA INHIBITORS” (Cancer Research Technology Limited, priority 2023, published 2026).

One data set deals with U2OS cells. The following applies: cited from earlier work.
Data set [1] concerns the target T1, IKKα (Homo sapiens, UniProt O15111).
T1 sequence (O15111 1-745): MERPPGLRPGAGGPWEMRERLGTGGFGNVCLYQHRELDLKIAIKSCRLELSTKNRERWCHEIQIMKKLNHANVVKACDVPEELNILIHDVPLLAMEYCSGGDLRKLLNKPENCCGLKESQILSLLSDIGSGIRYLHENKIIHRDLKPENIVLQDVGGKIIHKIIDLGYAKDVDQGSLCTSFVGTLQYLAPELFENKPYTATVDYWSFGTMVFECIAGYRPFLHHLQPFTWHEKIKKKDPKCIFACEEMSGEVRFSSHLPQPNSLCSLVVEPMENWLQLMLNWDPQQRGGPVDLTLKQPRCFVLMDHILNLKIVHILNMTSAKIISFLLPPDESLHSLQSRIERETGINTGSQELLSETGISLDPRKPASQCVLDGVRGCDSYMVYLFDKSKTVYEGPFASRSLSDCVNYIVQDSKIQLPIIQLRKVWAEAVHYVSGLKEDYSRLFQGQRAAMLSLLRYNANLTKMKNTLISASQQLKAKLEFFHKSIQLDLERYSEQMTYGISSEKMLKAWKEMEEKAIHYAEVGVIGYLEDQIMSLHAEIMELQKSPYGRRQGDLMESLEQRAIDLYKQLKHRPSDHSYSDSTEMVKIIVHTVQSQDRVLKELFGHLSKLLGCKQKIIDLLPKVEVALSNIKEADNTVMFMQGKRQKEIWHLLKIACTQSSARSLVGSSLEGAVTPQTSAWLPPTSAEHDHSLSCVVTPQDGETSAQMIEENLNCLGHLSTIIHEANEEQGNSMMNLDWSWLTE
The following applies: previous work [6]; read-out: IKKα inhibitory activity (Ki) of previous hit; cited from earlier work.

Data set [2] concerns IKKα over IKKβ. As to conditions: previous work [6]; cited from earlier work.
The target of another data set is CDK9 (Homo sapiens, UniProt P50750). The data set can be described thus: kinome profiling at 1 μM, CDK9. The data set is classed as biochemical. The following applies: read-out: % inhibition of CDK9. From the text:
(§1) We profiled three compounds from the series across the kinome (FIG. 11). […] To identify the structural drivers for CDK inhibition, we obtained X-ray crystal structures of 5 y and 6 g SU1336 and SU1349 with CDK-2 (FIG. 12A) to potentially identify possible routes towards introducing selectivity for IKKα over the CDK enzymes as well as IKKβ. […] All three derivatives form complexes with CDK2 with the pyrrolo[2,3 -b]pyridine H-bonding to GK+3 (Leu 83 ) and the aminoindazole projected towards the G-loop (FIG. 12A), forming H-bonds with Glu 51 and Lys 33 at the back of the pocket. The adoption of the 4 SU1253 -type orientation, rather than the flipped pose observed in IKKα, is probably facilitated by Tr-stacking between the aminoindazole and the GK residue, which in the CDKs is Phe, rather than Met. […] For 6 g SU1349, the hydrophobic pendant benzyloxy group points out into solvent, but can form face-to-edge Tr-Tr interactions with Phe 82 and His 84 from the hinge. Exchanging the hydrophobic pendant benzyloxy group for the morpholinoethyl-containing substituent in 5 y SU1336 removes any direct interaction with these hinge residues, preferring to sit in a more solvent-exposed position, as befits a basic side chain that will be protonated at physiological pH (FIG. 12B).
(§2) Black, 4 SU1253; grey, 5 r SU1261; diagonal stripes, 6 g SU1349. […] All tested compounds (4 SU1253, 5 r SU1261 and 6 g SU1349 ) inhibited CDK5 and CDK9 with >80 %.

In another data set the test system is panel of kinases. The data set can be described thus: kinome profiling at 1 μM. The data set is classed as biochemical.
Excerpt: as §1, §2

The target in data set [3] is T1, IKKα. The data set is described as follows: in-house DELFIA kinase assay, IKKα. Type of data set: biochemical. From the text:
(§3) To examine the pyrrolo[2,3 -b]pyridines as an alternative scaffold, we adopted the AIPP core because it had similar dimensions to 1 SU909, with HBD/HBA motifs positioned at the scaffold extremities to interact with both the hinge region and the G-loop wall of IKKα, a rationale we had previously proposed as the basis for imparting selectivity. A preliminary set of AIPP derivatives was designed to explore its utility as an IKK-targeting scaffold, whilst incorporating additional functionality through which to introduce selectivity for the IKKα isoform (2-4 SU1087, SU1266 and SU1253; FIG. 3). This was achieved by initially adopting two different approaches: either appending a hydrophobic moiety to the pyrrolo[2,3 -b]pyridine motif as a fused form to afford the tricyclic derivatives 2 and 3 SU1266 and SU1087, or as a phenyl substituent to introduce flexibility with the central pyrrolo[2,3 -b]pyridine moiety in 4 SU1253 . […] The pyrrolo[2,3 -b]pyridine was bound to the hinge region in the classical HBA/HBD motif with the GK+3 NH and C═O backbone, whilst the aminoindazole projected towards the top of the pocket to interact with the G-loop (FIG. 4A). […] In both isoforms, the 2 -phenyl moiety was oriented out from the hinge towards the exposed solvent area.

For the next data set, the target named is T2, IKKβ (Homo sapiens, UniProt O14920).
T2 sequence (O14920 1-756): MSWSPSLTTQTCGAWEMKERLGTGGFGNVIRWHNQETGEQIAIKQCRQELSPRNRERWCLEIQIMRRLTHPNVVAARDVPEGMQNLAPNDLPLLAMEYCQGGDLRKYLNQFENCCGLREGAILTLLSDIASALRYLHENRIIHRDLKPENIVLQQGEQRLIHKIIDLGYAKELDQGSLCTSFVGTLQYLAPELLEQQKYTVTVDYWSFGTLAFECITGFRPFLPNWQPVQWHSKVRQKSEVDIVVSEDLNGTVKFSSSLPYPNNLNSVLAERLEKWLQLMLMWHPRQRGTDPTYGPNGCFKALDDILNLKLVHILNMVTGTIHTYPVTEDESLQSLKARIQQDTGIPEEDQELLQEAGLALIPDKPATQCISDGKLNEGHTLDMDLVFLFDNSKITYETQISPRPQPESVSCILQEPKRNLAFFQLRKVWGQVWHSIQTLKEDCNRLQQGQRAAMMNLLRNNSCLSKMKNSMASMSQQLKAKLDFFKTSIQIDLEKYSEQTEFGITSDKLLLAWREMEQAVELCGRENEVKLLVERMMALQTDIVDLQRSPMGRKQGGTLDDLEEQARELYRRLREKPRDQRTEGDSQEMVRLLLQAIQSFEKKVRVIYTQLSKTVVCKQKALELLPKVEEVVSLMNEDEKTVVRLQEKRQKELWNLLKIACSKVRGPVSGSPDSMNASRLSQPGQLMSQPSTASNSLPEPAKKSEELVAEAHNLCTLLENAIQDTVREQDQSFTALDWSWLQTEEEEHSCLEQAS
The data set can be described thus: in-house DELFIA kinase assay, IKKβ. The data set is classed as biochemical. From the text: To examine the pyrrolo[2,3 -b]pyridines as an alternative scaffold, we adopted the AIPP core because it had similar dimensions to 1 SU909, with HBD/HBA motifs positioned at the scaffold extremities to interact with both the hinge region and the G-loop wall of IKKα, a rationale we had previously proposed as the basis for imparting selectivity. A preliminary set of AIPP derivatives was designed to explore its utility as an IKK-targeting scaffold, whilst incorporating additional functionality through which to introduce selectivity for the IKKα isoform (2-4 SU1087, SU1266 and SU1253; FIG. 3). This was achieved by initially adopting two different approaches: either appending a hydrophobic moiety to the pyrrolo[2,3 -b]pyridine motif as a fused form to afford the tricyclic derivatives 2 and 3 SU1266 and SU1087, or as a phenyl substituent to introduce flexibility with the central pyrrolo[2,3 -b]pyridine moiety in 4 SU1253 .

A further data set addresses CDK5 (Homo sapiens, UniProt Q00535). The data set is described as follows: kinome profiling at 1 μM, CDK5. Type of data set: biochemical. The following applies: read-out: % inhibition of CDK5.
Excerpt: as §1, §2

Data set [4] has as its system IKKα over IKKβ. The data set can be described thus: selectivity for IKKα over IKKβ from the kinase assay. Type of data set: biochemical.
Excerpt: as §3
To shift the selectivity profile towards IKKα, we selected 4 SU1253 for structural optimization based on the notion that sigma-bond rotation between the phenyl ring and the pyrrolo[2,3 -b]pyridine would inbuild the flexibility required to engage with the three dimensional array of residues nearby to exploit differences between the two isoforms. Furthermore, this would enable the inclusion of moieties that could also project into solvent and address solubility considerations. Small groups (NH2, OH, OMe, OEt and F) were initially introduced into the phenyl ring to evaluate their impact on the selectivity profile against both IKKs (5 a-g SU1354 -SU1373, Table 2 ). Our goal was to achieve a 1:50 selectivity ratio of IKKα to IKKβ, with a minimum IKKβ inhibitory Ki of 500 nM.

A short description of data set [5]: mouse hepatocyte clearance (cryopreserved pooled mouse CD1 hepatocytes). As to conditions: mouse, hepatocytes; 1 μM; 0.5×10^6 cells/mL; 37° C. The data set is classed as in vitro ADME. As for the experimental part: Pharmacokinetic studies were contracted to Sygnature Discovery Limited. Intrinsic clearance and half life were determined using cryopreserved pooled mouse CD1 hepatocytes. Test compounds were analysed at 1 μM in Williams Media E buffer (0.01 % DMSO) at a cell density of 0.5×10^6 cells mL^−1 . Cells were incubated at 37° C. for one hour with shaking and compound depletion was measured by LC-MS/MS at six timepoints (0.25, 5, 10, 20, 40, and 60 minutes).

A short description of another data set: Turbidimetric solubility. Type of data set: physicochemical.

Where two headings read alike, the source gives them in different places.

CDK9, sequence (P50750 whole entry, species assumed): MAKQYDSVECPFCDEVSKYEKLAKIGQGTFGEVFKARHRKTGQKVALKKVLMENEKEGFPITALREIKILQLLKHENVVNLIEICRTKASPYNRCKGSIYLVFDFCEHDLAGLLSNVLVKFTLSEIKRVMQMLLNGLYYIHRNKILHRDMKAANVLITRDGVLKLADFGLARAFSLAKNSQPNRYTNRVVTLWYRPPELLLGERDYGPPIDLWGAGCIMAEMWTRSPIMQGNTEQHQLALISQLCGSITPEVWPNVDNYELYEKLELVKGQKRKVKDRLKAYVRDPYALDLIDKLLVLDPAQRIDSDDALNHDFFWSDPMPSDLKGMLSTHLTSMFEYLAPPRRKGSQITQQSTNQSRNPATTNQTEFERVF
CDK9, sequence (O60563 whole entry partner, species assumed): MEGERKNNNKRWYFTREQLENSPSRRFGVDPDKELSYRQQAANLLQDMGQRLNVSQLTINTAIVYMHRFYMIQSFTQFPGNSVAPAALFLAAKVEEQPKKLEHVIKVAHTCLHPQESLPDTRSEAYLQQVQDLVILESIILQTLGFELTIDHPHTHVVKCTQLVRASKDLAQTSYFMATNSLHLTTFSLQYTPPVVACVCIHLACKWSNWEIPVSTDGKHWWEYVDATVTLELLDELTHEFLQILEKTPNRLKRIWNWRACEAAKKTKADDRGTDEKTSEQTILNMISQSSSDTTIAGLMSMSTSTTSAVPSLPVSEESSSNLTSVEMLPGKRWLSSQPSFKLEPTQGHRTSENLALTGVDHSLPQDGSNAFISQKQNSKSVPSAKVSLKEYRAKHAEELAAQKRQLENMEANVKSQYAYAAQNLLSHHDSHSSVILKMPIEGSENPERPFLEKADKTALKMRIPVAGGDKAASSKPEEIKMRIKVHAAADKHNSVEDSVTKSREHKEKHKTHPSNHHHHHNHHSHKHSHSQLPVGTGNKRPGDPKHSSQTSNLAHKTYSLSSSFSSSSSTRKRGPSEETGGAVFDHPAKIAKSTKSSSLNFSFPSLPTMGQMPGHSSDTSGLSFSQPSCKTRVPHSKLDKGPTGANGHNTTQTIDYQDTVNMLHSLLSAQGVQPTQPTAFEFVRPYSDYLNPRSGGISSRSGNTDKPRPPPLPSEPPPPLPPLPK
CDK5, sequence (Q00535 whole entry, species assumed): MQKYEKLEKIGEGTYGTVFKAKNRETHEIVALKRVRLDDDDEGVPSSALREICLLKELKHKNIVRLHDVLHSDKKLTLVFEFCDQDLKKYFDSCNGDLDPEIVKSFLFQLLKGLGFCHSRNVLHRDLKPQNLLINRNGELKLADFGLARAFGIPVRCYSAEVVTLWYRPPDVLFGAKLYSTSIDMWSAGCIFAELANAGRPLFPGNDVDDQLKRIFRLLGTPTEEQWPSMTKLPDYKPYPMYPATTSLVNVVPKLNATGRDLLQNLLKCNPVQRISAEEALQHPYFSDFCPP
CDK5, sequence (Q15078 99-307 partner limits assumed, species assumed): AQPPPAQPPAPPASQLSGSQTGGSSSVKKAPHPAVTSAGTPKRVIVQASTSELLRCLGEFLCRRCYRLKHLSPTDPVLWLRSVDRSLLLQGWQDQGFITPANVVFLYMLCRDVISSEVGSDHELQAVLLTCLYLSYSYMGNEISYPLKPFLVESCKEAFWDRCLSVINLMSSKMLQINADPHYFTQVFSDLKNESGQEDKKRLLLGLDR

As to `N#Cc1c[nH]c2nc(N)nc(-c3ccc(S(N)(=O)=O)cc3)c12` [1 SU909], the “selectivity in U2OS cells, in words” value in the data set with U2OS cells was “recapitulated this discrimination in U2OS cells”. Moreover, the inhibitory constant (Ki) on IKKα [1] was 80 nM. In the data set with IKKα over IKKβ [2], the “selective inhibition of IKKα, in words” value is “selective inhibitor of IKKα”.

For the compound `Nc1n[nH]c2ccc(-c3ccnc4[nH]c(-c5ccccc5)cc34)cc12` [4 SU1253, 5-(2 -Phenyl-1 H-pyrrolo[2,3-b]pyridin-4-yl)-1 H-indazol-3-amine], the inhibition at 1 µM at CDK9 and at CDK5 was above 80% each time. The “kinome selectivity, in words” value in the data set on panel of kinases was “very promiscuous”. For the same compound, the “number of kinases inhibited by >80 %” value with panel of kinases (panel of 231 kinases) was found to be 44 kinases; in the data set on panel of kinases (panel of 253 kinases (FIG. 11)), 46 kinases. Also, the results for the Ki on IKKα [3] and at IKKβ were 3 nM and 15 nM, respectively.

With `Nc1n[nH]c2ccc(-c3ccnc4[nH]c(-c5ccc(OCc6ccccc6)nc5)cc34)cc12` [6d SU1350, 5-(2-(6-(Benzyloxy)pyridin-3-yl)-1 H-pyrrolo[2,3-b]pyridin-4-yl)-1 H-indazol-3-amine], in the data set on IKKα over IKKβ [4], the “selectivity for IKKα over IKKβ, in words” value is reported as “reduced selectivity”. The inhibition constant (Ki) is 12 nM on IKKα [3] and 22 nM at IKKβ.

For `Nc1n[nH]c2ccc(-c3ccnc4[nH]c(-c5ccnc(OCc6ccncc6)c5)cc34)cc12` [6k SU1628, 5-(2-(2-(Pyridin-4-ylmethoxy)pyridin-4-yl)-1 H-pyrrolo[2,3-b]pyridin-4-yl)-1 H-indazol-3-amine], in the data set with IKKα over IKKβ [4], the “selectivity for IKKα over IKKβ, in words” value was “equipotent against both isoforms”. At IKKα [3], this compound showed a Ki of 6 nM. Also, at IKKβ, the “IKKβ inhibition, in words” value was “potent inhibition against IKKβ” and the Ki is 12 nM. In data set [5], this compound gave an intrinsic metabolic clearance (hepatocyte CLint) of 11 µL/min/1e6 cells. Moreover, the “solubility, in words” value in “Turbidimetric solubility” is on record as “requisite solubility”.
